Source: US20130004581A1, “CONTROLLING UPTAKE BY CELLS” (Ramot at Tel-Aviv University Ltd., priority 2010, published 2013)

How the values were obtained:
COS 5-7 cells [1] = experiment: Uptake after one minute of chemically induced low pH (HCl added to HBSS suspension), FACS; assay type: cell-based, African green monkey; conditions: for Folds Uptake mean: 1 min, 10 μM Dextran-FITC
Experimental: The following tables show a connection between pH and current. […] The values in the tables are shown as folds relative to the uptake in cells unexposed to any of the treatments. […] The results are expected to be substantially independent of cell type and molecule used, except for a cell-specific change and a molecule specific change.
Cells (COS 5-7) were harvested, re-suspended in DMEM (1 mg/ml glucose, 5% FCS), and incubated (37°, 5% CO2) as designated by the experiment. For uploading the cells with either H2DCF-DA (20 μM) or Bis-DHA (1 mM) incubation lasted 90 minutes. When no pre-treatments were required, the cells were kept in the DMEM for 30 minutes. Following incubation, the cells were centrifuged at 400g for 1 min, the solution aspirated, and cells re-suspended in HBSS exposure media.
Exposure of cells to pulse acidification was through the addition of HCl to the HBSS suspension for 60 seconds, terminated by the addition of a three fold larger volume of DMEM-H.
Cell suspensions were centrifuged (400g for one minute), their solutions aspirated and they were re-suspended with 0.5 ml DMEM-H supplemented with 10u/ml dextranase (Sigma-Aldrich) for 10 minutes at RT. Cells were centrifuged again; their solution aspirated and they were re-suspended with 0.2 ml DMEM-H. PI (25 μg/ml) as a label for permeabilized cells and tryphan blue (0.01% w/v) as a fluorescence quenching agent for extracellular FITC (36) were added to each sample shortly before analysis
Flow cytometry analysis was carried out by FACSort (Becton @ Dickson, San Jose, Calif.), employing a 488-nm argon laser excitation. The green fluorescence of FITC was measured via 530/30 nm filter, the red fluorescence of PI was detected via a 585/42 nm filter. […] Ten thousand cells were examined for each sample and data were collected in the list mode. The analysis of flow cytometry data was performed using WINMDI 2.9 software (Joe Trotter, The Scripps Research Institute). For each sample the geometrical mean was calculated without including PI stained cells. Cell intensity was determined as fold of induction relative to cells' constitutive uptake.
After one minute incubation, cell suspensions were immediately diluted with 3 fold larger volume of cold buffered DMEM to restore pH to a normal pH of 7.5.

COS 5-7 cells [2] = experiment: Uptake after one minute of electric pulse train (EPT) in three-compartment device, FACS; assay type: cell-based, African green monkey; conditions: for Folds Uptake mean: electric field 200 mA/cm^2; for Folds Uptake mean / Folds Uptake Fold: 1 min, 10 μM Dextran-FITC; for Folds Uptake Fold: relative to unexposed cells
Experimental: Exposure of cells to low-intensity trains of unipolar rectangular voltage pulses was carried in a three-compartment exposure set-up where the anode and cathode were connected to an electric pulse generator (Grass S44 Stimulator). The exposure set-up consisted of a rectangular chamber made from polystyrene, 15 mm long, 10 mm wide, with 0.5 cm^2 area platinum electrodes positioned on the extreme sides (see FIG. 15). The chamber is divided by two porous membranes (PolyEtherSulfon, 0.8 μm pores, 200 μm depth), into three distinct and equal compartments: anode, cathode and center ones. The electric field parameters applied were monitored on line by recording the voltage and the current (by means of a wide band current probe, Pearson) on an oscilloscope. Typically, a cell suspension (1*10^6 cells/ml) is exposed to a train of electric pulses consisting of unipolar rectangular pulses with duration of 180 μs, frequency of 500 Hz for the total time of exposure of one minute.
Flow cytometry analysis was carried out by FACSort (Becton @ Dickson, San Jose, Calif.), employing a 488-nm argon laser excitation. […] Ten thousand cells were examined for each sample and data were collected in the list mode. The analysis of flow cytometry data was performed using WINMDI 2.9 software (Joe Trotter, The Scripps Research Institute). For each sample the geometrical mean was calculated without including PI stained cells. Cell intensity was determined as fold of induction relative to cells' constitutive uptake.

COS 5-7 cells [3] = experiment: Proton induced uptake (PIU) in adherent COS 5-7 cultures, 5 minutes, FACS; assay type: cell-based, African green monkey; conditions: pH 5, P<0.001
Description: Uptake, based on flow cytometry, is plotted as function of the external pH from 3 independent experiments per cell line.
FIG. 1A is shown the Extent of uptake in terms of FITC intensity geometrical mean±SD is presented as fold induction relative to the constitutive uptake at physiological pH 7.4. In FIG. 1B is shown the PI (a necrotic cell marker) stained cells fraction±SD (%) relative to unexposed control population. In FIG. 1C is shown the FITC geometrical mean±SD presented as fold induction relative to the constitutive uptake at physiological pH 7.4.

HaCaT cells = experiment: Proton induced uptake (PIU) in HaCaT cells, FACS; assay type: cell-based, human; conditions: pH 5.25; pulse label for last 5 minutes
Experimental: FIG. 6 is a chart showing PIU of molecules different by size and charge, in accordance with some embodiments of the invention. Hacat cultures were exposed to solutions of pH 5.2 or pH 7.4 for 5 minutes period, in the presence of different fluorescence molecules (All at 25 μM concentration). FACS analysis results (FL1, geometrical mean±SD) for the cell cultures exposed to pH 5.2 are presented as fold induction relative to results obtained for cells exposed to pH 7.4. This can be used, in some embodiments of the invention, to assess effect of molecule size and charge on uptake.
FIGS. 7A-7B are charts showing the comparison of PIU in adherent and suspended HaCaT cells, in accordance with some embodiments of the invention. For FIG. 7A, HaCaT cells were tested either at their adherent state, or following harvest at a suspended state. […] FACS analyses (FL1) in terms of geometrical mean±SD are presented as fold induction relative to the constitutive uptake at physiological pH 7.4. n=9 in 3 independent experiments. For FIG. 7B, HaCaT Cells were cultivated at low, medium or high cell density. […] The cultures were harvested and undergone FACS analyses (FL1) in terms of geometrical mean±SD and are presented as fold induction relative to the constitutive uptake of low density cultures. Statistical significance was tested against the confluent culture, n=9 in 3 independent experiments. In the charts, * indicates a t-test p<0.05; and ** indicates a t-test p<0.01. This can be used, in some embodiments of the invention, to assess effect of cell membrane rigidity and/or tissue structure on uptake.
FIGS. 12A-12B are a chart and images which show the relative change of PIU by modifiers of actin cytoskeleton organization, in accordance with some embodiments of the invention. […].

Caco2/TC7 cells = experiment: Proton induced uptake (PIU) in Caco2/TC7 cells, FACS; assay type: cell-based; conditions: pH 5; 5 minutes; P<0.001
Experimental: Caco-2 cells were cultivated, and were harvested when reaching 80% confluence by the use of trypsin-EDTA. The cell suspensions were immediately diluted in full medium (DMEM with 4.5 mg/ml glucose, 10% FCS), centrifuged and re-suspended in recovery medium (HBSS or PBS).
Once exposure is terminated the suspension is transferred to a small vial where it is either incubated at 37° C. or immediately cooled down to 4° C. All samples are collected together on ice and then simultaneously analyzed.
Acidification is imposed by supplementing the suspension with 10 mM MES buffer and the concentrations of HCl required for reaching the experimental pH level.
The cells are washed by being centrifuged, re-suspended with fresh DMEM (without phenol-red or FCS), incubated at room temperature with probe specific digestive enzymes, where appropriate, centrifuged and washed again.
For FACS analysis, Trypan-blue (0.01%) and PI (2 μg/ml) are added to the cells suspension to quench residual extracellular fluorescence and stain necrotic cells, respectively.

## Dextran-FITC
COS 5-7 cells [1]; pH 1.6, relative to unexposed cells
  Folds Uptake mean: 48.09 folds
COS 5-7 cells [1]; pH 1.9, relative to unexposed cells
  Folds Uptake mean: 42.47 folds
COS 5-7 cells [1]; pH 2.5, relative to unexposed cells
  Folds Uptake mean: 47.62 folds
COS 5-7 cells [1]; pH 2.9, relative to unexposed cells
  Folds Uptake mean: 45.54 folds
COS 5-7 cells [1]; pH 3.1, relative to unexposed cells
  Folds Uptake mean: 41.25 folds
COS 5-7 cells [1]; pH 3.3, relative to unexposed cells
  Folds Uptake mean: 20.14 folds
COS 5-7 cells [1]; pH 3.5, relative to unexposed cells
  Folds Uptake mean: 9.575 folds
COS 5-7 cells [1]; pH 3.7, relative to unexposed cells
  Folds Uptake mean: 7.679 folds
COS 5-7 cells [1]; pH 4, relative to unexposed cells
  Folds Uptake mean: 4.776 folds
COS 5-7 cells [1]; pH 4.7, relative to unexposed cells
  Folds Uptake mean: 3.856 folds
COS 5-7 cells [1]; pH 5, relative to unexposed cells
  Folds Uptake mean: 2.594 folds
COS 5-7 cells [1]; pH 5.8, relative to unexposed cells
  Folds Uptake mean: 2.636 folds
COS 5-7 cells [1]; pH 6, relative to unexposed cells
  Folds Uptake mean: 1.483 folds
COS 5-7 cells [1]; pH 6.25, relative to unexposed cells
  Folds Uptake mean: 1.619 folds
COS 5-7 cells [1]; pH 7.4 (reference)
  Folds Uptake mean: 1 folds
COS 5-7 cells [1]; steep elevation of uptake starting at pH 4
  pH at which uptake reaches saturation: 3 pH
COS 5-7 cells [2]; 60 mM HEPES in HBSS
  Folds Uptake mean: 51.98 folds
COS 5-7 cells [2]; 70 mM HEPES in HBSS
  Folds Uptake mean: 48.84 folds
COS 5-7 cells [2]; 80 mM HEPES in HBSS
  Folds Uptake mean: 14.86 folds
COS 5-7 cells [2]; 90 mM HEPES in HBSS
  Folds Uptake mean: 12.81 folds
COS 5-7 cells [2]; 100 mM HEPES in HBSS
  Folds Uptake mean: 10.06 folds
COS 5-7 cells [2]; 120 mM HEPES in HBSS
  Folds Uptake mean: 4.613 folds
COS 5-7 cells [2]; 150 mM HEPES in HBSS
  Folds Uptake mean: 3.106 folds
COS 5-7 cells [2]; 10 V/cm, 80 mA/cm^2
  Folds Uptake Fold: 1.62 folds
COS 5-7 cells [2]; 13.3 V/cm, 120 mA/cm^2
  Folds Uptake Fold: 2.449 folds
COS 5-7 cells [2]; 16.6 V/cm, 160 mA/cm^2
  Folds Uptake Fold: 6.017 folds
COS 5-7 cells [2]; 20 V/cm, 80 mA/cm^2
  Folds Uptake Fold: 1.824 folds
COS 5-7 cells [2]; 20 V/cm, 120 mA/cm^2
  Folds Uptake Fold: 3.015 folds
COS 5-7 cells [2]; 20 V/cm, 160 mA/cm^2
  Folds Uptake Fold: 5.476 folds
COS 5-7 cells [2]; 20 V/cm, 200 mA/cm^2, 100 mM HEPES
  Folds Uptake Fold: 9.134 folds
COS 5-7 cells [2]; 26.6 V/cm, 200 mA/cm^2
  Folds Uptake Fold: 11.73 folds
COS 5-7 cells [2]; 33.3 V/cm, 200 mA/cm^2
  Folds Uptake Fold: 10.49 folds
COS 5-7 cells [2]; 46.6 V/cm, 80 mA/cm^2
  Folds Uptake Fold: 1.694 folds
COS 5-7 cells [2]; 46.6 V/cm, 160 mA/cm^2
  Folds Uptake Fold: 6.34 folds
COS 5-7 cells [2]; 66.6 V/cm, 120 mA/cm^2
  Folds Uptake Fold: 3.447 folds
COS 5-7 cells [2]; train of electric pulses 20V/cm, 200 mA/cm^2, anodic compartment only, relative to constitutive uptake
  increase in cellular uptake in the anodic compartment: 10 fold
COS 5-7 cells [3]
  dextran concentration relative to HT29 cells: 2 folds
HaCaT cells
  initial PIU rate of adherent cultures, folds lower than suspended cells: 2.5 folds
Caco2/TC7 cells
  dextran concentration relative to HT29 cells: 2 folds
